In patent US12673961B2 (Agios Pharmaceuticals, Inc., priority 2022, dated 2026):

biological target: T1, human PAH with the R408W mutation (Homo sapiens, UniProt P00439, R408W); assay: Cell Based Phenylalanine Flux Assay; conditions: A375 cells expressing human R408W PAH; 24 hrs compound incubation; 13C-Tyrosine by LC-MS; average where tested multiple times; read-out: AC50;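 note: Ten-point dose curve from 2-fold serial dilutions, run in duplicate at 0.5% DMSO final, tracer step used 20 µM sepiapterin and 800 µM labeled phenylalanine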
T1 construct: expressed in transfected cells
T1 sequence (P00439 1-452 R408W): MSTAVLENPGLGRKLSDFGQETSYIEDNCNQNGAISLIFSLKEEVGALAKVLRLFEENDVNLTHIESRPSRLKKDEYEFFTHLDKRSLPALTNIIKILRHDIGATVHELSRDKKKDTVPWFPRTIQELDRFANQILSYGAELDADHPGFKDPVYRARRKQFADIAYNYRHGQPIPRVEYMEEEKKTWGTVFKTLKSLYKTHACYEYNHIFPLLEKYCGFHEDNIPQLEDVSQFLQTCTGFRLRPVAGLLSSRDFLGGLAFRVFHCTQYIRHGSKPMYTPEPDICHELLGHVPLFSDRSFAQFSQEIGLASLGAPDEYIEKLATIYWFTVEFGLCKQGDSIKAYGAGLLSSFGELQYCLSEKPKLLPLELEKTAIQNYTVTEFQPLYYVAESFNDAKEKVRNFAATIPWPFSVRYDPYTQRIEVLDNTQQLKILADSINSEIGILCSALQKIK

Compound	AC50 [nM]
O=C(c1nnc(-c2ccccn2)o1)N1CCc2[nH]cnc2[C@H]1c1cc2c(C(F)(F)F)cccn2n1 [Example 826, (S)-(5-(pyridin-2-yl)-1,3,4-oxadiazol-2-yl)(4-(4-(trifluoromethyl)pyrazolo [1,5-a]pyridin-2-yl)-6,7-dihydro-1H-imidazo[4,5-c]pyridin-5(4H)-yl)methanone]	< 500
O=C(c1nnc(-c2ccccn2)o1)N1CCc2[nH]cnc2[C@@H]1c1cc2c(C(F)(F)F)cccn2n1 [Example 827, (R)-(5-(pyridin-2-yl)-1,3,4-oxadiazol-2-yl)(4-(4-(trifluoromethyl)pyrazolo [1,5-a]pyridin-2-yl)-6,7-dihydro-1H-imidazo[4,5-c]pyridin-5(4H)-yl)methanone]	> 5000
O=C(c1nnc(-c2cnn(C3CCC3)c2)o1)N1CCc2[nH]cnc2[C@@H]1c1cc2c(F)cccn2n1 [Example 833, (R)-(5-(1-cyclobutyl-1H-pyrazol-4-yl)-1,3,4-oxadiazol-2-yl)(4-(4-fluoropyrazolo[1,5-a]pyridin-2-yl)-6,7-dihydro-1H-imidazo [4,5-c]pyridin-5(4H)-yl) methanone]	> 5000
Cc1cccn2nc([C@H]3c4nc[nH]c4CCN3C(=O)c3ncnn3C)cc12 [Example 839, (R)-(1-methyl-1H-1,2,4-triazol-5-yl)(4-(4-methylpyrazolo[1,5-a]pyridin-2-yl)-6,7-dihydro-1H-imidazo[4,5-c]pyridin-5(4H)-yl)methanone]	1000 to 5000
O=C(c1ccnn1C1CC1)N1CCc2[nH]cnc2[C@H]1c1cc2c(F)cccn2n1 [Example 848, (S)-(1-cyclopropyl-1H-pyrazol-5-yl)(4-(4-fluoropyrazolo[1,5-a]pyridin-2-yl)-6,7-dihydro-1H-imidazo[4,5-c]pyridin-5(4H)-yl)methanone]	< 500
Cc1cccn2nc([C@@H]3c4nc[nH]c4CCN3C(=O)c3cc(C(F)F)nn3C)cc12 [Example 867, (S)-(3-(difluoromethyl)-1-methyl-1H-pyrazol-5-yl)(4-(4-methylpyrazolo[1,5-a]pyridin-2-yl)-6,7-dihydro-1H-imidazo[4,5-c]pyridin-5(4H)-yl)methanone]	< 500
Cc1cccn2nc([C@H]3c4nc[nH]c4CCN3C(=O)c3nnc(-c4ccc(F)cn4)o3)cc12 [Example 874, (R)-(5-(5-fluoropyridin-2-yl)-1,3,4-oxadiazol-2-yl)(4-(4-methylpyrazolo[1,5-a]pyridin-2-yl)-6,7-dihydro-1H-imidazo[4,5-c]pyridin-5(4H)-yl)methanone]	> 5000
Cc1cc(-c2nnc(C(=O)N3CCc4[nH]cnc4[C@H]3c3cc4c(F)cccn4n3)o2)nn1C [Example 883, (S)-(5-(1,5-dimethyl-1H-pyrazol-3-yl)-1,3,4-oxadiazol-2-yl)(4-(4-fluoropyrazolo[1,5-a]pyridin-2-yl)-6,7-dihydro-1H-imidazo[4,5-c]pyridin-5(4H)-yl)methanone]	< 500
Cc1cccn2nc([C@@H]3c4nc[nH]c4CCN3C(=O)c3nnc(-c4cccnc4)o3)cc12 [Example 894, (S)-(4-(4-methylpyrazolo [1,5-a]pyridin-2-yl)-6,7-dihydro-1H-imidazo[4,5-c]pyridin-5(4H)-yl)(5-(pyridin-3-yl)-1,3,4-oxadiazol-2-yl) methanone]	< 500
O=C(c1ocnc1C(F)F)N1CCc2[nH]cnc2[C@H]1c1cc2cccc(Cl)n2n1 [Example 958, (S)-(4-(7-chloropyrazolo [1,5-a]pyridin-2-yl)-6,7-dihydro-1H-imidazo[4,5-c]pyridin-5(4H)-yl)(4-(difluoromethyl)oxazol-5-yl)methanone]	< 500

Now from value to compound:

AC50 [nM]	Compound
< 500	Cc1cccc2cc([C@@H]3c4nc[nH]c4CCN3C(=O)c3nnc(-c4ncccc4F)o3)nn12 [Example 912, (S)-(5-(3-fluoropyridin-2-yl)-1,3,4-oxadiazol-2-yl)(4-(7-methylpyrazolo[1,5-a]pyridin-2-yl)-6,7-dihydro-1H-imidazo[4,5-c]pyridin-5(4H)-yl)methanone]
> 5000	Cc1cccc2cc([C@H]3c4nc[nH]c4CCN3C(=O)c3nnc(-c4cnn(C(F)F)c4)o3)nn12 [Example 915, (R)-(5-(1-(difluoromethyl)-1H-pyrazol-4-yl)-1,3,4-oxadiazol-2-yl)(4-(7-methylpyrazolo[1,5-a]pyridin-2-yl)-6,7-dihydro-1H-imidazo[4,5-c]pyridin-5(4H)-yl)methanone]
> 5000	Cc1cccn2nc([C@H]3c4nc[nH]c4CCN3C(=O)c3nnc(C4CC4)o3)cc12 [Example 925, (R)-(5-cyclopropyl-1,3,4-oxadiazol-2-yl)(4-(4-methylpyrazolo[1,5-a]pyridin-2-yl)-6,7-dihydro-1H-imidazo[4,5-c]pyridin-5(4H)-yl)methanone]
> 5000	Cc1cccc2cc([C@H]3c4nc[nH]c4CCN3C(=O)c3nnc(C(C)(C)F)o3)nn12 [Example 939, (R)-(5-(2-fluoropropan-2-yl)-1,3,4-oxadiazol-2-yl)(4-(7-methylpyrazolo[1,5-a]pyridin-2-yl)-6,7-dihydro-1H-imidazo[4,5-c]pyridin-5(4H)-yl)methanone]
< 500	O=C(c1nnc(-c2cnccn2)o1)N1CCc2[nH]cnc2[C@H]1c1cc2c(F)cccn2n1 [Example 962, (S)-(4-(4-fluoropyrazolo[1,5-a]pyridin-2-yl)-6,7-dihydro-1H-imidazo[4,5-c]pyridin-5(4H)-yl)(5-(pyrazin-2-yl)-1,3,4-oxadiazol-2-yl)methanone]
< 500	CC(C)(F)c1nnc(C(=O)N2CCc3[nH]cnc3[C@H]2c2cc3cccc(Cl)n3n2)o1 [Example 969, (S)-(4-(7-chloropyrazolo [1,5-a]pyridin-2-yl)-6,7-dihydro-1H-imidazo[4,5-c]pyridin-5(4H)-yl)(5-(2-fluoropropan-2-yl)-1,3,4-oxadiazol-2-yl)methanone]
< 500	O=C(c1nnc(-c2cnccn2)o1)N1CCc2[nH]cnc2[C@H]1c1cc2cccc(Cl)n2n1 [Example 979, (S)-(4-(7-chloropyrazolo [1,5-a]pyridin-2-yl)-6,7-dihydro-1H-imidazo[4,5-c]pyridin-5(4H)-yl)(5-(pyrazin-2-yl)-1,3,4-oxadiazol-2-yl)methanone]
500 to 1000	O=C(c1nnc(-c2cnn(C(F)F)c2)o1)N1CCc2[nH]cnc2[C@H]1c1cc2cccc(F)n2n1 [Example 984, (S)-(5-(1-(difluoromethyl)-1H-pyrazol-4-yl)-1,3,4-oxadiazol-2-yl)(4-(7-fluoropyrazolo[1,5-a]pyridin-2-yl)-6,7-dihydro-1H-imidazo [4,5-c]pyridin-5(4H)-yl)methanone]
< 500	Cc1cccn2nc([C@@H]3c4nc[nH]c4CCN3C(=O)c3nnc(C(C)(C)C)o3)cc12 [Example 1022, (S)-(5-(tert-butyl)-1,3,4-oxadiazol-2-yl)(4-(4-methylpyrazolo[1,5-a]pyridin-2-yl)-6,7-dihydro-1H-imidazo[4,5-c]pyridin-5(4H)-yl)methanone]
> 5000	Cc1cccn2nc([C@H]3c4nc[nH]c4CCN3C(=O)c3nnc(C(C)(C)C)o3)cc12 [Example 1023, (R)-(5-(tert-butyl)-1,3,4-oxadiazol-2-yl)(4-(4-methylpyrazolo[1,5-a]pyridin-2-yl)-6,7-dihydro-1H-imidazo[4,5-c]pyridin-5(4H)-yl)methanone]
